Assay results reported in US20140314697A1, “Method for Inhibiting Inflammation and Reducing Melanophilin Expression with Glycine Derivatives And the Composition Thereof” (CORUM INC., priority 2013, published 2014).
Marks after values point to notes of the source that are not given here.

Legend:
[1] = tested on: age spot; experiment: Skin whitening test: age spot photography, Reverse Photo Engineering quantitative analysis; type: in vivo, human; details: for Age Spot Reduction - Reverse Photo Engineering Data, Max % Improvement / Age Spot Reduction - Reverse Photo Engineering Data, % Difference: 0.2% Ac-Gly-β-Ala sample
Description: In this example, the in-vivo skin test is finished by AMA Laboratories USA. The skin color changes are evaluated with Minolta chromameter color computer system. The Age spot photography is evaluated with Reverse Photo Engineering Quantitative Analysis.
In terms of age spot photography, the participants were 5 women aged 38-49 years old, wherein four of the participants were caucasian, and one was Asian. The participants were tested before (baseline), and after using 14, 28, 56 days with high-resolution digital camera, then Reverse Photo Engineering quantitative analysis to perform the age spot change evaluation.

[2] = tested on: Raw264.7 cells; experiment: Cell viability on Raw264.7; type: cell-based, Murine; details: for cell viability on Raw264.7, Entry 2: passage N + 5; for cell viability on Raw264.7, Entry 2 / cell viability on Raw264.7, Entry 3 / cell viability on Raw264.7, Entry 1 / cell viability on Raw264.7, Average: with LPS & IFN-r, Positive Control 100%; for cell viability on Raw264.7, Entry 3: passage N + 6; for cell viability on Raw264.7, Entry 1: passage N + 7
Description: (§1) 4.4. Cell Viability is Tested by Neutral Red Uptake Experience or MTT Assay.

[3] = tested on: Human IL-6 secretion, Normal Human Epidermal Keratinocytes (NHEK); experiment: Human IL-6 production in UVB-irradiated NHEK (ELISA); type: cell-based; details: for Human IL-6 Content, Average: 40 mJ/cm^2 UVB; for Human IL-6 Content, Average / Human IL-6 Content, Entry 1 / Human IL-6 Content, Entry 2 / Human IL-6 Content, Entry 3 / Human IL-6 Content, Entry4: Positive Control 100%; for Human IL-6 Content, Entry 1 / Human IL-6 Content, Entry 2: passage 2 + 2, 40 mJ/cm^2 UVB; for Human IL-6 Content, Entry 3 / Human IL-6 Content, Entry4: passage 2 + 3, 40 mJ/cm^2 UVB
Description: (§2) Normal Human Epidermal Keratinocytes (NHEK) (PromoCell No. C-12008);
(§3) Positive Control: 40 mJ/cm^2 UVB,
(§4) Negative Control: No UVB irradiation;
(§5) a. Rinse the confluent NHEK cells with sterile D-PBS then trypsinize all cells and perform cell counting.
(§6) b. Dilute the cell density to 4˜8E+04/mL and seed 0.5 mL cell liquid (equals to 2˜4E+04 cells) each well in 24 well plate.
(§7) c. Incubate NHEK cells at 37° C., 5% CO2 until subconfluence.
(§8) d. Prepared dosing solution of testing material in Complete Medium: 0.4%, 0.2%, 0.1%, 0.05%.
(§9) e. Rinse the NHEK cells with sterile D-PBS and discard rinse buffer. Add 400 μL of controls and testing materials in different concentrations into NHEK cells in 24 well plates.
(§10) f. Pre-incubate NHEK cells with testing material at 37° C., 5% CO2 for about 6 hours.
(§11) g. After pre-incubating for about 6 hours, wash the NHEK cells with sterile D-PBS for twice then add […] sterile D-PBS for UVB irradiation.
(§12) h. UVB intensity is about 2300 μW/cm^2 and UVB energy is about 40 mJ/cm^2.
(§13) i. After UVB irradiation, discard sterile D-PBS and wash again. Add 400 μL of the same dosing solution in to each wells.
(§14) j. Post-incubate at 37° C., 5% CO2 for about 18 hours.
(§15) k. After post-incubating for 18 hours, collect the supernatant of controls and testing materials.
(§16) l. Determine the IL-6/IL-8 content of the supernatant by R&D ELISA kit as mentioned previously.
(§17) Normal Human Epidermal Keratinocytes (NHEK) were treated by the above-mentioned glycine derivatives for evaluating their anti-inflammatory effect on keratinocytes in this example.

[4] = tested on: Human IL-8 secretion, Normal Human Epidermal Keratinocytes (NHEK); experiment: Human IL-8 production in UVB-irradiated NHEK (ELISA); type: cell-based; details: for Human IL-8 Content, Average: 40 mJ/cm^2 UVB; for Human IL-8 Content, Average / Human IL-8 Content, Entry 1 / Human IL-8 Content, Entry 2 / Human IL-8 Content, Entry 3: Positive Control 100%; for Human IL-8 Content, Entry 1: passage 2 + 2, 40 mJ/cm^2 UVB; for Human IL-8 Content, Entry 2 / Human IL-8 Content, Entry 3: passage 2 + 3, 40 mJ/cm^2 UVB
Description: as §2, §3, §4, §5, §6, §7, §8, §9, §10, §11, §12, §13, §14, §15, §16, §17

[5] = tested on: NHEK cells; experiment: Cell viability on NHEK; type: cell-based, Human; details: for cell viability on NHEK, Average / cell viability on NHEK, Entry 1 / cell viability on NHEK, Entry 2 / cell viability on NHEK, Entry 3: 40 mJ/cm^2 UVB, Positive Control 100%; for cell viability on NHEK, Entry 1: passage 2 + 2; for cell viability on NHEK, Entry 2 / cell viability on NHEK, Entry 3: passage 2 + 3
Description: as §1

CC(=O)NCC(=O)NCCC(=O)O [Ac-Gly-β-Ala, 3-(2-acetylamino-acetylamino)-propionic acid]
Age Spot Reduction - Reverse Photo Engineering Data, Max % Improvement ([1]; Day 14): −51.67% | Age Spot Reduction - Reverse Photo Engineering Data, % Difference ([1]; Day 14 vs baseline): −41.47%* | Age Spot Reduction - Reverse Photo Engineering Data, Max % Improvement ([1]; Day 28): −80.63% | Age Spot Reduction - Reverse Photo Engineering Data, % Difference ([1]; Day 28 vs baseline): −63.37% | Age Spot Reduction - Reverse Photo Engineering Data, Max % Improvement ([1]; Day 56): −87.40% | Age Spot Reduction - Reverse Photo Engineering Data, % Difference ([1]; Day 56 vs baseline): −73.07%* | quantitative analyzed data for the age spot change evaluation ([1]; sample containing 0.2% Ac-Gly-β-Ala): significantly decreased | cell viability on Raw264.7, Entry 2 ([2]; 0.05%): 101% | cell viability on Raw264.7, Entry 3 ([2]; 0.05%): 89% | cell viability on Raw264.7, Entry 1 ([2]; 0.05%): 101% | cell viability on Raw264.7, Average ([2]; 0.05%): 96% | cell viability on Raw264.7, Entry 2 ([2]; 0.10%): 104% | cell viability on Raw264.7, Entry 3 ([2]; 0.10%): 87% | cell viability on Raw264.7, Entry 1 ([2]; 0.10%): 95% | cell viability on Raw264.7, Average ([2]; 0.10%): 97% | cell viability on Raw264.7, Entry 2 ([2]; 0.20%): 98% | cell viability on Raw264.7, Entry 3 ([2]; 0.20%): 91% | cell viability on Raw264.7, Entry 1 ([2]; 0.20%): 90% | cell viability on Raw264.7, Average ([2]; 0.20%): 100% | cell viability on Raw264.7, Entry 2 ([2]; 0.40%): 77% | cell viability on Raw264.7, Entry 3 ([2]; 0.40%): 89% | cell viability on Raw264.7, Entry 1 ([2]; 0.40%): 86% | cell viability on Raw264.7, Average ([2]; 0.40%): 88% | Cell viability ([2]; Raw264.7, all of dosing solution (0.05-0.4%)): higher than 85% | IL-6 production, dose dependence ([3]; 0.05%-0.4%, UVB): dose-dependently inhibited | Human IL-6 Content, Average ([3]; Table 6, 0.05%): 59% | Human IL-6 Content, Entry 1 ([3]; Table 6, 0.05%): 68% | Human IL-6 Content, Entry 2 ([3]; Table 6, 0.05%): 58% | Human IL-6 Content, Entry 3 ([3]; Table 6, 0.05%): 49% | Human IL-6 Content, Entry4 ([3]; Table 6, 0.05%): 62% | Human IL-6 Content, Average ([3]; Table 6, 0.10%): 34% | Human IL-6 Content, Entry 1 ([3]; Table 6, 0.10%): 43% | Human IL-6 Content, Entry 2 ([3]; Table 6, 0.10%): 25% | Human IL-6 Content, Entry 3 ([3]; Table 6, 0.10%): 28% | Human IL-6 Content, Entry4 ([3]; Table 6, 0.10%): 42% | Human IL-6 Content, Average ([3]; Table 6, 0.20%): 15% | Human IL-6 Content, Entry 1 ([3]; Table 6, 0.20%): 19% | Human IL-6 Content, Entry 2 ([3]; Table 6, 0.20%): 10% | Human IL-6 Content, Entry 3 ([3]; Table 6, 0.20%): 10% | Human IL-6 Content, Entry4 ([3]; Table 6, 0.20%): 20% | Human IL-6 Content, Entry 1 ([3]; Table 6, 0.40%): 0% | Human IL-6 Content, Entry 2 ([3]; Table 6, 0.40%): 0% | Human IL-6 Content, Entry 3 ([3]; Table 6, 0.40%): 0% | Human IL-6 Content, Entry4 ([3]; Table 6, 0.40%): 10% | IL-8 production, dose dependence ([4]; 0.05%-0.4%, UVB): inhibited IL-8 production in dose-dependent manner | Human IL-8 Content, Average ([4]; Table 7, 0.05%): 97% | Human IL-8 Content, Entry 1 ([4]; Table 7, 0.05%): 107% | Human IL-8 Content, Entry 2 ([4]; Table 7, 0.05%): 81% | Human IL-8 Content, Entry 3 ([4]; Table 7, 0.05%): 103% | Human IL-8 Content, Average ([4]; Table 7, 0.10%): 80% | Human IL-8 Content, Entry 1 ([4]; Table 7, 0.10%): 76% | Human IL-8 Content, Entry 2 ([4]; Table 7, 0.10%): 70% | Human IL-8 Content, Entry 3 ([4]; Table 7, 0.10%): 93% | Human IL-8 Content, Average ([4]; Table 7, 0.20%): 69% | Human IL-8 Content, Entry 1 ([4]; Table 7, 0.20%): 77% | Human IL-8 Content, Entry 2 ([4]; Table 7, 0.20%): 72% | Human IL-8 Content, Entry 3 ([4]; Table 7, 0.20%): 59% | Human IL-8 Content, Entry 1 ([4]; Table 7, 0.40%): 10% | Human IL-8 Content, Entry 2 ([4]; Table 7, 0.40%): 5% | Human IL-8 Content, Entry 3 ([4]; Table 7, 0.40%): 13% | cell viability on NHEK, Average ([5]; 0.01%): 80% | cell viability on NHEK, Entry 1 ([5]; 0.01%): 80% | cell viability on NHEK, Entry 2 ([5]; 0.01%): 82% | cell viability on NHEK, Entry 3 ([5]; 0.01%): 76% | cell viability on NHEK, Average ([5]; 0.03%): 84% | cell viability on NHEK, Entry 1 ([5]; 0.03%): 88% | cell viability on NHEK, Entry 2 ([5]; 0.03%): 80% | cell viability on NHEK, Entry 3 ([5]; 0.03%): 83% | cell viability on NHEK, Average ([5]; 0.05%): 93% | cell viability on NHEK, Entry 1 ([5]; 0.05%): 93% | cell viability on NHEK, Entry 2 ([5]; 0.05%): 90% | cell viability on NHEK, Entry 3 ([5]; 0.05%): 95% | cell viability on NHEK, Average ([5]; 0.10%): 108% | cell viability on NHEK, Entry 1 ([5]; 0.10%): 109% | cell viability on NHEK, Entry 2 ([5]; 0.10%): 103% | cell viability on NHEK, Entry 3 ([5]; 0.10%): 110% | cell viability on NHEK, Average ([5]; 0.20%): 109% | cell viability on NHEK, Entry 1 ([5]; 0.20%): 106% | cell viability on NHEK, Entry 2 ([5]; 0.20%): 107% | cell viability on NHEK, Entry 3 ([5]; 0.20%): 113% | cell viability on NHEK, Average ([5]; 0.40%): 93% | cell viability on NHEK, Entry 1 ([5]; 0.40%): 106% | cell viability on NHEK, Entry 2 ([5]; 0.40%): 95% | cell viability on NHEK, Entry 3 ([5]; 0.40%): 79% | Cell viability ([5]; NHEK, all of dosing solution): higher than 80%
